{"source": "patent US10752581B2", "about": "“4-((2-hydroxy-3-methoxybenzyl)amino)benzenesulfonamide derivatives as potent and selective inhibitors of 12-lipoxygenase” (Eastern Virginia Medical School, priority 2013, dated 2020)", "key": {"[1]": {"system": "FcγRIIa-stimulated platelets", "experiment": "FcγRIIa phosphorylation (immunoprecipitation, Western blot)", "type": "cell-based, human", "conditions": "ML355 (20 μM); IV.3+GAM", "experimental": "FIGS. 15A-15B show the role of 12-LOX in regulating the FcγRIIa signaling complex. Washed human platelets were pre-treated with ML355 (20 μM) or vehicle control prior to IV.3 and GAM stimulation. (FIG. 15A) Immunoprecipitation of FcγRIIa at 15, 30, and 60 seconds post crosslinking and measured for phosphorylation via Western blot. (FIG. 15B) Platelets were lysed following FcγRIIa cross-linking in the presence of ML355 or DMSO were immunoblotted for active (pY323) and total Syk.\nTo investigate whether 12-LOX directly regulated FcγRIIa phosphorylation, FcγRIIa was immunoprecipitated from IV.3+GAM-stimulated platelets treated with ML355 or DMSO and immunoblotted for phosphorylation of FcγRIIa.\n(§1) FcγRIIa-mediated platelet activation: FcγRIIa-mediated platelet activation was initiated by two distinct models; either 1) FcγRIIa antibody cross-linking or 2) CD9 monoclonal antibody stimulation. To cross-link FcγRIIa, washed platelets were incubated with IV.3, an FcγRIIa mouse monoclonal antibody, for one minute followed by the addition of a goat anti-mouse (GAM) IgG antibody to cross-link FcγRIIa. The concentration of FcγRIIa cross-linking antibodies used for each experiment is indicated in the text. Alternatively, washed human platelets were stimulated with an anti-CD9 monoclonal antibody to activate FcγRIIa mediated signaling. […]"}, "[2]": {"experiment": "PBS buffer (pH 7.4) solubility", "type": "physicochemical", "conditions": "PBS buffer, pH 7.4, aqueous buffer"}, "[3]": {"system": "FcγRIIa-stimulated platelets", "experiment": "Dense granule secretion (ATP release) after FcγRIIa stimulation", "type": "cell-based, human", "conditions": "compared with DMSO treated platelets", "from_the_text": "(§2) Preparation of washed human platelets: Prior to blood collection written informed consent was obtained from all volunteers. Washed platelets were isolated from the blood of healthy volunteers as previously described (14). Washed platelets were resuspended in tyrodes buffer at 3.0×10^8 platelets/mL unless otherwise indicated.\nas §1, with “signaling. Due to inter-individual variability in anti-CD9 response, a range of anti-CD9 concentration (0.25-1 μg/ml) was used to achieve an aggregation of EC80.” for “signaling.”\nDense granule secretion: ATP release was measured from washed platelets as surrogate for dense granule secretion. […] Platelets were stimulated with FcγRII antibody cross-linking under stirring conditions and fluorescence was measured in real-time using a lumi-aggregometer."}, "[4]": {"system": "washed human platelets", "experiment": "PAR4-AP-induced calcium mobilization", "type": "cell-based", "conditions": "200 μM PAR4-AP; increasing concentrations", "experimental": "(§3) Blood was centrifuged at 200 g for 13 min at room temperature."}, "[5]": {"system": "human primary donor islets", "experiment": "Human Islet (12-HETE Inhibition) Assay", "type": "cell-based", "conditions": "10 μM"}, "[6]": {"system": "human donor islet preparations", "experiment": "Glucose-stimulated insulin secretion in human islets", "type": "cell-based", "conditions": "cytokines (TNFα, IL-1β, IFNγ); 3 mM or 18 mM glucose", "experimental": "FIGS. 3D and 3E show results from glucose-stimulated insulin secretion in human donor islet preparations in response to 3 mM glucose (Low) or 18 mM glucose (High) for control (untreated) islets. […] FIGS. 3D and 3E represent results obtained in different human donor islet preparations."}, "[7]": {"experiment": "in vivo", "conditions": "male, CD1, mouse"}, "[8]": {"system": "FcγRIIa-stimulated platelets", "experiment": "PKC activation assay", "type": "cell-based, human", "experimental": "(§4) FcγRIIa-mediated platelet activation: FcγRIIa-mediated platelet activation was initiated by two distinct models; either 1) FcγRIIa antibody cross-linking or 2) CD9 monoclonal antibody stimulation. To cross-link FcγRIIa, washed platelets were incubated with IV.3, an FcγRIIa mouse monoclonal antibody, for one minute followed by the addition of a goat anti-mouse (GAM) IgG antibody to cross-link FcγRIIa. The concentration of FcγRIIa cross-linking antibodies used for each experiment is indicated in the text. Alternatively, washed human platelets were stimulated with an anti-CD9 monoclonal antibody to activate FcγRIIa mediated signaling. Due to inter-individual variability in anti-CD9 response, a range of anti-CD9 concentration (0.25-1 μg/ml) was used to achieve an aggregation of EC80. In studies using the 12-LOX inhibitor (ML355), washed platelets were incubated with either ML355 (20 μM), or DMSO (vehicle control) for 15 minutes prior to FcγRIIa stimulation.\nPKC activation assay: Washed platelets were stimulated by FcγRIIa antibody cross-linking under stirring conditions (1100 rpm) in an aggregometer at 37° C. Reactions were stopped by the addition of 5X× Laemmli sample buffer at the indicated times. As a positive control platelets were treated with PMA ([…]), a direct PKC agonist, for one minute. […]"}, "[9]": {"system": "FcγRIIa-stimulated platelets", "experiment": "Rap1 activation after FcγRIIa stimulation", "type": "cell-based, human", "conditions": "ML355 pre-treatment", "from_the_text": "as §2\nas §4, with “FcγRIIa stimulation. […]” for “FcγRIIa stimulation.”"}, "[10]": {"experiment": "Microsomal stability (mouse)", "type": "in vitro ADME"}, "[11]": {"experiment": "Parallel Artificial Membrane Permeability Assay (PAMPA)", "conditions": "PAMPA at pH 7.4"}, "[12]": {"system": "Caco-2", "experiment": "Caco-2 assay permeability", "type": "in vitro ADME", "conditions": "A→B"}, "[13]": {"system": "FcγRIIa-stimulated platelets", "experiment": "Calcium mobilization after FcγRIIa cross-linking", "type": "cell-based, human", "conditions": "ML355 (20 μM); compared to DMSO treated platelets", "experimental": "as §4\nCalcium mobilization: Intracellular calcium release was measured as previously described. […] Platelets were stimulated by FcγRIIa antibody cross-linking and fluorescence intensity was measured in real-time by flow cytometry. Data is reported as the fold change in the fluorescence intensity comparing maximum fluorescence intensity relative to fluorescence intensity prior to platelet stimulation."}, "[14]": {"experiment": "In Vivo PK (Mouse)"}, "[15]": {"system": "washed human platelets", "experiment": "PAR4-AP-induced platelet aggregation", "type": "cell-based", "experimental": "as §3"}, "[16]": {"conditions": "male, CD1, mouse, in vivo, intravenous, 3 mpk"}, "[17]": {"conditions": "male, CD1, mouse, in vivo, iv, 3 mg/kg"}, "[18]": {"conditions": "male, CD1, mouse, in vivo, po, 30 mg/kg"}}, "note": "Marks after values point to notes of the source that are not given here.", "data": [{"smiles": "COc1cccc(CNc2ccc(S(=O)(=O)Nc3nc4ccccc4s3)cc2)c1O", "note": "[Compound 35, N-(benzo[d]thiazol-2-yl)-4-((2-hydroxy-3-methoxybenzyl)amino)benzenesulfonamide]", "values": [{"measurement": "FcγRIIa phosphorylation", "setting": "[1]", "value": "No difference in FcγRIIa phosphorylation"}, {"measurement": "solubility", "setting": "[2]", "value": "< 5", "unit": "µg/mL"}, {"measurement": "ATP release (dense granule secretion)", "setting": "[3]", "value": "significant decrease in ATP release"}, {"measurement": "PAR4-AP-induced calcium mobilization (in words)", "setting": "[4]", "value": "Calcium mobilization was decreased"}, {"measurement": "AA/IONO-induced 12-HETE production in human islets", "setting": "[5]", "value": "significant inhibition of AA/IONO-induced 12-HETE production"}, {"measurement": "glucose-stimulated insulin secretion with cytokines", "setting": "[6]", "value": "Uncoupling of glucose-stimulated insulin secretion by cytokines is inhibited"}, {"measurement": "half-life", "setting": "[7]", "value": 2.9, "unit": "h"}, {"measurement": "PKC activation", "setting": "[8]; ML355 (20 μM), 30 and 60 seconds, FcγRIIa cross-linking", "value": "significant decrease in PKC activation"}, {"measurement": "PKC activation by PMA", "setting": "[8]; PMA, a direct PKC activator", "value": "no difference in its ability to activate PKC"}, {"measurement": "Rap1 activation", "setting": "[9]", "value": "failed to activate Rap1"}, {"measurement": "Microsomal stability T1/2 (min)", "setting": "[10]; in the presence of NADPH", "value": ">300^a min"}, {"measurement": "half-life", "setting": "[10]; microsomes, read-out: microsomal stability T1/2", "value": "> 5", "unit": "h"}, {"measurement": "permeability (1 × 10^−6 cm/s)", "setting": "[11]", "value": "394^c 1 × 10^−6 cm/s"}, {"measurement": "permeability (1 × 10^−6 cm/s)", "setting": "[12]", "value": "1.5 (A→B)^a 1 × 10^−6 cm/s"}, {"measurement": "intracellular Ca2+ release", "setting": "[13]", "value": "decrease in intracellular Ca^2+"}, {"measurement": "time remaining over IC50 value", "setting": "[14]; 30 mpk dosing", "value": "over 12 hours"}, {"measurement": "% F", "setting": "[14]; PO, 30 mpk", "value": 19.8, "unit": "%"}, {"measurement": "Vd", "setting": "[14]; [16]", "value": 0.55, "unit": "L/kg"}, {"measurement": "clearance", "setting": "[14]; [16]", "value": 3.4, "unit": "mL/min/kg"}, {"measurement": "AUC(0-inf)", "setting": "[14]; [17]", "value": 34, "unit": "µM·h"}, {"measurement": "Cmax", "setting": "[14]; [17]", "value": 112, "unit": "µM"}, {"measurement": "Vd", "setting": "[14]; [17]", "value": 0.55, "unit": "L/kg"}, {"measurement": "clearance", "setting": "[14]; [17]", "value": 3.4, "unit": "mL/min/kg"}, {"measurement": "half-life", "setting": "[14]; [17]", "value": 3.4, "unit": "h"}, {"measurement": "AUC(0-inf)", "setting": "[14]; [18]", "value": 67, "unit": "µM·h"}, {"measurement": "Cmax", "setting": "[14]; [18]", "value": 38, "unit": "µM"}, {"measurement": "bioavailability", "setting": "[14]; [18]", "value": "~20", "unit": "%"}, {"measurement": "half-life", "setting": "[14]; [18]", "value": 2.9, "unit": "h"}, {"measurement": "PAR4-AP induced platelet aggregation (in words)", "setting": "[15]", "value": "significantly reduce PAR4-AP induced platelet aggregation"}, {"measurement": "platelet aggregation at 10 μM", "setting": "[15]; 10 μM, PAR4-AP", "value": "did not inhibit platelet aggregation"}]}]}
